According to patent publication US20110020518A1, “TASTE MODIFYING PRODUCT” (priority 2008, published 2011):

System: kokumi/umami taste
Assay: Evaluation of alkylpyridines: taste panel of 8 trained panelists, samples in 0.3% aqueous NaCl
Type: in vivo
Details: scale 0 (no effect) to 10 (extremely strong kokumi/umami effect)
Description: Alkylpyridines shown in the following table were prepared by firstly being diluted into propylene glycol solvent in order to provide a 10% solution of the alkylpyridine. Each solution was then diluted using a 0.3% aqueous solution of NaCl, heated if necessary to achieve better dissolution, to a concentration of between 10 ppm and 30 ppm of the alkylpyridine. The samples were then stored at ambient temperature.
A panel consisting of 8 trained panelists evaluated the samples for taste properties on a scale of 0 to 10 where 0 denoted no kokumi/umami effect and 10 denoted extremely strong kokumi/umami effect.

SMILES | Kokumi/Umami taste intensity (10 ppm in 0.3% aqueous NaCl) | further results
CCc1ccccn1 [2-Ethylpyridine, reference compound] | 0 | –
CCCCCCc1ccccn1 [2-Hexylpyridine] | 7 | –
CCCc1ccccn1 [2-Propylpyridine, reference compound] | 0 | –
Cc1ccccn1 [2-picoline, reference compound] | – | Kokumi/Umami taste intensity (20 ppm in 0.3% aqueous NaCl): 0
CCCCCCCc1ccccn1 [Compound of ex. 1, 2-heptylpyridine] | 7 | –
CCCCCCCCc1ccccn1 [Compound of ex. 2, 2-octylpyridine] | 2 | –
CCCCCCCCCc1ccccn1 [Compound of ex. 3, 2-nonylpyridine] | 1 | –
CCCCCCCCCCCc1ccccn1 [Compound of ex. 4, 2-undecylpyridine] | 0 | –
CCCCCCCCCCCCc1ccccn1 [Compound of ex. 5, 2-dodecylpyridine] | 0 | –
CCCCCc1cc(C)ccn1 [Compound of ex. 6, 4-methyl-2-pentylpyridine] | 0 | –
c1ccncc1 [Pyridine, reference compound] | – | Kokumi/Umami taste intensity (30 ppm in 0.3% aqueous NaCl): 0
